In ChEMBL document CHEMBL1926619, “Structure and in vitro antiparasitic activity of constituents of Citropsis articulata root bark” (J Nat Prod, 2011):
Values after ≈ are worked out from the molar mass of the structure shown.

What was measured:
Plasmodium falciparum = test: microbe, parasite or virus in culture; format: functional, organism-based; settings: FcB1/Columbia
Description: Antiplasmodial activity against chloroquine-resistant Plasmodium falciparum FcB1/Colombia infected in human A+ve erythrocytes assessed as inhibition of [G-3H]hypoxanthine uptake preincubated for 24 hrs prior to [G-3H]hypoxanthine addition measured after 18 hrs by liquid scintillation counting

Vero = test: Cytotoxicity against african green monkey Vero cells; format: ADME, cell-based; settings: Chlorocebus sabaeus
[1] = Selectivity index, ratio of IC50 for african green monkey Vero cells to IC50 for chloroquine-resistant Plasmodium falciparum FcB1/Colombia; format: toxicity, cell-based; settings: read-out: Ratio IC50
Leishmania donovani = test: Antileishmanial activity against Leishmania donovani MHOM/ET/L82/LV9 promastigotes after 3 days by MTT assay; format: functional, organism-based; settings: MHOM/ET/L82/LV9, 72 h
[2] = tested on: Trypanosoma brucei brucei; test: Antitrypanosomal activity against Trypanosoma brucei brucei; format: functional, organism-based

COc1cc2c(c(O)c1OC)c(=O)c1cccc(O)c1n2C
IC50 (Plasmodium falciparum): 3 µg/mL (≈ 9.96 µM)
IC50 (Vero): 30.5 µg/mL (≈ 101 µM)
selectivity ratio [1]: 10
EC50 (Leishmania donovani): 20.4 µg/mL (≈ 67.7 µM)
EC50 [2]: 125 µg/mL (≈ 415 µM)

CC(=O)O[C@@H]1C[C@H]2C(C)(C)OC(=O)C=C[C@]2(C)[C@H]2CC[C@@]3(C)[C@H](c4ccoc4)OC(=O)[C@H]4O[C@]43[C@@]21C
IC50 (Plasmodium falciparum): 9.3 µg/mL (≈ 18.7 µM)
IC50 (Vero): > 50 µg/mL
EC50 (Leishmania donovani): 45 µg/mL (≈ 90.3 µM)
EC50 [2]: > 125 µg/mL

Cn1c2c(O)cccc2c(=O)c2c(O)cc3c(c21)C=CC(C)(C)O3
IC50 (Plasmodium falciparum): 0.9 µg/mL (≈ 2.78 µM)
IC50 (Vero): 9.3 µg/mL (≈ 28.8 µM)
selectivity ratio [1]: 10
EC50 (Leishmania donovani): 11.2 µg/mL (≈ 34.6 µM)
EC50 [2]: 125 µg/mL (≈ 387 µM)

CC[C@@]1(O)C(=O)OCc2c1cc1n(c2=O)Cc2cc3ccccc3nc2-1 [CAMPTOTHECIN]
IC50 (Vero): 0.6 µg/mL (≈ 1.72 µM)

NCCS[As](SCCN)c1ccc(Nc2nc(N)nc(N)n2)cc1 [CYMELARSEN]
EC50 [2]: 1 µg/mL

CC(C)=CCc1cc2ccc(=O)oc2cc1O [DEMETHYLSUBEROSIN]
IC50 (Plasmodium falciparum): 16.7 µg/mL (≈ 72.5 µM)
IC50 (Vero): > 50 µg/mL
EC50 (Leishmania donovani): 120 µg/mL (≈ 521 µM)
EC50 [2]: > 125 µg/mL

COc1cc2ccc(=O)oc2cc1O[C@@H]1O[C@H](CO[C@@H]2O[C@@H](C)[C@H](O)[C@@H](O)[C@H]2O)[C@@H](O)[C@H](O)[C@H]1O [HAPLOPEROSIDE]
IC50 (Plasmodium falciparum): > 100 µg/mL
IC50 (Vero): > 50 µg/mL
EC50 (Leishmania donovani): > 125 µg/mL
EC50 [2]: > 125 µg/mL

C[C@@H]1O[C@@H](O[C@H]2[C@H](Oc3cc(=O)n(C)c4ccccc34)O[C@H](CO)[C@@H](O)[C@@H]2O)[C@H](O)[C@H](O)[C@H]1O [KATIMBORINE]
IC50 (Plasmodium falciparum): > 100 µg/mL
IC50 (Vero): > 50 µg/mL
EC50 (Leishmania donovani): > 125 µg/mL
EC50 [2]: > 125 µg/mL

CC1(C)C=Cc2c(ccc(CCC(=O)O)c2O[C@@H]2O[C@H](CO[C@@H]3O[C@H](CO)[C@@H](O)[C@H](O)[C@H]3O)[C@@H](O)[C@H](O)[C@H]2O)O1 [OMUBIOSIDE]
IC50 (Plasmodium falciparum): > 100 µg/mL
IC50 (Vero): > 50 µg/mL
EC50 (Leishmania donovani): > 125 µg/mL
EC50 [2]: > 125 µg/mL

N=C(N)c1ccc(OCCCCCOc2ccc(C(=N)N)cc2)cc1 [PENTAMIDINE]
EC50 (Leishmania donovani): 3.1 µg/mL (≈ 9.11 µM)
EC50 [2]: 1.4 µg/mL (≈ 4.11 µM)

CC1(C)C=Cc2c(ccc3ccc(=O)oc23)O1 [SESALIN]
IC50 (Plasmodium falciparum): > 100 µg/mL
IC50 (Vero): > 50 µg/mL
EC50 (Leishmania donovani): > 125 µg/mL
EC50 [2]: > 125 µg/mL

COc1cc2oc(=O)ccc2cc1CC=C(C)C [SUBEROSIN]
IC50 (Plasmodium falciparum): > 100 µg/mL
IC50 (Vero): > 50 µg/mL
EC50 (Leishmania donovani): > 125 µg/mL
EC50 [2]: > 125 µg/mL

C[n+]1cccc(C(=O)[O-])c1.Cl [TRIGONELLINE HYDROCHLORIDE]
IC50 (Plasmodium falciparum): > 100 µg/mL
IC50 (Vero): > 50 µg/mL
EC50 (Leishmania donovani): > 125 µg/mL
EC50 [2]: > 125 µg/mL
